From US20130079309A1, “Method Of Treating Acute Lung Injury Using Sphingosine 1 Phosphate Analogs Or Sphingosine 1 Phosphate Receptor Agonists” (The Board of Trustees of the University of Illinois, priority 2010, published 2013)

Assays:
[1] = tested on: lung vascular leakage in RILI mice; experiment: ViSen FMT lung imaging of intravascular probe extravasation in RILI mice; format: in vivo, mouse; conditions: 0.1 mg/kg, 25 Gy, 6 weeks
Description: Lung imaging studies were also performed with assessment of RILI-induced extravasation of an intravascular probe.
To assess microvascular changes associated with RILI in real-time, mice were imaged with ViSen FMT 1500 Quantitative Tomography In Vivo Imaging System. Intergisens^750 NIR (ViSen Medicals, Bedford, Mass.) was used as a probe, which targets the vasculature as a selective non-peptide small molecule integrin αvβ3 antagonist and a near-infrared fluorochrome. Mice were injected with probe ([…], IV) at 6 weeks post radiation and imaged 24 hrs later. Probe intensity was quantified using TrueQuant 3D software (VisSen Medicals).

S1P receptor 1 (S1PR1) [2] = molecular target: T1, S1P receptor 1 (S1PR1) (Homo sapiens, UniProt P21453); experiment: S1PR1 protein expression in HPAEC by Western blot; format: cell-based; design: Cells were collected and S1PR1 expression level was detected by Western blot; endogenous in cells; host or cells: HPAEC (human pulmonary artery endothelial cells); conditions: for S1PR1 expression level compared to control: 1 μM (SEW2871 10 μM), 4 h
From the text: Cells were collected and S1PR1 expression level was detected by Western blot.

[3] = tested on: LPS-induced lung injury in C57BL/6 mice; experiment: LPS-induced murine lung injury model; conditions: for capillary leak as total BAL protein, relative to PBS control: 1S 0.1-5.0 mg/kg i.p. single dose 1 h after LPS 2.5 mg/kg i.t., FTY720 0.5 mg/kg, S1P 0.026 mg/kg; for peripheral blood leukocyte and lymphocyte levels relative to PBS controls: 18 h after LPS
Description: For experiments performed in intact animals, male C57BL/6 mice (8-10 weeks) were anesthetized with intraperitoneal ketamine and acetylpromazine mixture according to the approved protocol. Escherichia coli LPS solution (2.5 mg/kg) or sterile saline was instilled intratracheally via a 20-gauge catheter. Simultaneously, mice received either FTY720 or analogs (in doses: 0.01, 0.1, 0.5, 1, and 5 mg/kg i.p.) or PBS as vehicle. The animals were allowed to recover for 18 h. BAL and lungs were collected and stored at −70° C. for evaluation of lung injury.
Pure BAL fluids prepared for protein measurement or myeloperoxidase activity (MPO) lung homogenates were used to test albumin concentration. The assay was performed in 96-well plastic plates (Nalge Nunc A/S, Roskilde, Denmark). Plates were coated with mouse albumin (Bethyl Lab, Montgomery, Tex.), washed, and blocked. Aliquots (100-μl) of the sample or standard and 100 μl of goat anti-mouse albumin antibody (horseradish peroxidase-conjugated) (1:50,000) were then added, followed by incubation at 37° C. for 1 h. Finally, the substrate 3,3′,5,5′-tetramethylbenzidine was added for 10 min, and the reaction stopped by adding 100 μl of 2 M H2SO4. The absorbance at 450 nm was read on a kinetic microplate reader (Molecular Devices).
Myeloperoxidase (MPO) was isolated and measured from snap-frozen right lungs as follows (see also Remick et al., 1990, Am J Pathol 136: 49-60). The right lung was homogenized in 1 ml of 50 mM potassium phosphate, pH 6.0, with 0.5% hexadecyltrimethylammonium bromide. The resulting homogenate was sonicated and then centrifuged at 12,000 g for 15 min. The supernatant was mixed 1:30 with assay buffer (100 mM potassium phosphate, pH 6.0, 0.005% H2O2, 0.168 mg/ml o-dianisidine hydrochloride), and absorbance read at 490 nm. MPO units were calculated as the change in absorbance with respect to time.
Peripheral blood was examined by the Missouri University Research Animal Diagnostic Laboratory (Columbia, Mo.) for determination of total blood cell counts and differentials in blood samples.
Values are shown as the mean±S.E. Data were analyzed using a standard Student's t test or one-way analysis of variance, groups were compared by Newman-Keuls test, and significance in all cases was defined at p<0.05.

HPAEC [4] = experiment: Pharmacologic inhibitor effects on barrier enhancement (TER); conditions: 1 μM agonist, 60 min; for % Inhibition of Maximal TER Response (of Agonist-Only Control), PTX: 2-h preincubation 100 ng/ml PTX; for % Inhibition of Maximal TER Response (of Agonist-Only Control), MβCD: 2-h preincubation 2 mM MβCD; for % Inhibition of Maximal TER Response (of Agonist-Only Control), Gen: 30-min preincubation 200 μM genistein
Description: Endothelial cells were grown to confluence in polycarbonate wells containing evaporated gold microelectrodes (surface area, 10^−3 cm^2) in series with a large gold counter electrode (1 cm^2) connected to a phase-sensitive lock-in amplifier. Current was applied across the electrodes by a 4,000-Hz AC voltage source with amplitude of 1 V in series with a 1 MΩ resistance to approximate a constant current source (˜1 μA). The in-phase and out-of-phase voltages between the electrodes were monitored in real time with the lock-in amplifier and subsequently converted to scalar measurements of transendothelial impedance, of which resistance was the primary focus. TER was monitored for 30 minutes to establish a baseline resistance (R0) which, for bovine pulmonary endothelium, was typically between 8 to 12×10^3Ω (wells with R0<7×10^3Ω were rejected). As cells adhere and spread out on the microelectrode, TER increases (maximal at confluence), whereas cell retraction, rounding, or loss of adhesion is reflected by a decrease in TER. These measurements provide a highly sensitive biophysical assay that indicates the state of cell shape and focal adhesion. Values from each microelectrode were pooled at discrete time points and plotted versus time as the mean±SE of the mean. TER values from each microelectrode were pooled as discrete time points and plotted versus time as the mean±S.E.M.
In this experiment, confluent HPAEC were plated on gold microelectrodes and then stimulated with 1 μM S1P, FTY720, 1R, 1S, 2R, or 2S after either a 2-h preincubation with 100 ng/ml PTX, 30-min preincubation with 200 μM genistein (Gen), or 2-h preincubation with 2 mM MβCD or their respective vehicle controls. Data were pooled from multiple TER experiments (4-10 independent experiments per condition) and expressed as percentage inhibition of maximal barrier enhancement at 60 min relative to agonist-only control.

S1P receptor 1 (S1PR1) [5] = molecular target: T1, S1P receptor 1 (S1PR1); experiment: Ubiquitination of S1PR1 in HPAEC (immunoprecipitation, ubiquitin Ab); conditions: for ubiquitination of S1PR1 at 2 h: 1 μM (SEW2871 10 μM); for ubiquitination of S1PR1 at 1 h: 1 μM
From the text: S1PR1 was immunoprecipitated by S1PR1Ab, and ubiquitination of S1PR1 was detected by ubiquitin Ab.

β-arrestin = conditions: 1 μM (SEW2871 10 μM; (S)-FTY720-phosphonate 1, 10, 50 μM), 5 h
Description: After another 2 h-incubation with fluorescence substrate, the fluorescence intensity (blue and green channels) were detected and the blue/green emission ratio was used as the activation indicator.

[6] = tested on: bleomycin-induced ALI in C57/BL6 mice; experiment: Murine model of bleomycin-induced ALI; conditions: for animals alive by day 12 following bleomycin instillation: bleomycin 1.2 U/kg i.t.; for mice survived to 14 days: bleomycin + compound
Description: C57/BL6 mice received bleomycin (1.2 U/kg) or sterile saline administered i.t. (intratracheally) and were then treated with FTY720, (S)-FTY720-phosphonate, (0.1 mg/kg i.p.) or PBS vehicle 3× a week until harvesting. Mice were followed for 14 days to assess mortality rates and multiple indices of lung injury.

HPAEC [7] = experiment: Transendothelial electrical resistance (TER) of HPAEC; format: cell-based, human; conditions: for maximal TER change: 10 μM
Description: Cells were grown at 37° C. in a 5% CO2 incubator, and passages 6 to 9 were used for experiments. Media were changed 1 day before experimentation.

T1 sequence (P21453 whole entry): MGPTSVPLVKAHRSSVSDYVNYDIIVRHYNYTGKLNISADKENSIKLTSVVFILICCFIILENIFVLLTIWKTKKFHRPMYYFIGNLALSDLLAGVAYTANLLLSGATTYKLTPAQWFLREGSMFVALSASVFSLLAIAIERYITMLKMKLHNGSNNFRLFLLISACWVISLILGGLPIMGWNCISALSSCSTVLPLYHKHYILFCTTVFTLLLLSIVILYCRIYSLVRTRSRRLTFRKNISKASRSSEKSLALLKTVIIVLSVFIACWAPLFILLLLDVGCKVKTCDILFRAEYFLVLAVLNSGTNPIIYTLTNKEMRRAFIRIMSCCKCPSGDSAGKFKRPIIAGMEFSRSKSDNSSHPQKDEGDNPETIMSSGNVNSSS

| SMILES | radiation-induced probe extravasation (probe intensity), FMT imaging [1] | S1PR1 expression level compared to control (S1P receptor 1 (S1PR1) [2]) [%] | capillary leak as total BAL protein, relative to PBS control ([3]; 18 h) | peripheral blood leukocyte and lymphocyte levels relative to PBS controls [3] | % Inhibition of Maximal TER Response (of Agonist-Only Control), PTX (HPAEC [4]) | % Inhibition of Maximal TER Response (of Agonist-Only Control), MβCD (HPAEC [4]) | % Inhibition of Maximal TER Response (of Agonist-Only Control), Gen (HPAEC [4]) | ubiquitination of S1PR1 at 2 h (S1P receptor 1 (S1PR1) [5]) | ubiquitination of S1PR1 at 1 h (S1P receptor 1 (S1PR1) [5]) | activation of β-arrestin (blue/green emission ratio) (β-arrestin) | animals alive by day 12 following bleomycin instillation ([6]; 0.1 mg/kg i.p. 3× a week) [%] | mice survived to 14 days [6] | maximal TER change (HPAEC [7]; within 60 min) | also measured |
| --- | --- | --- | --- | --- | --- | --- | --- | --- | --- | --- | --- | --- | --- | --- |
| CCCCCCCCc1ccc(CCC(N)(CO)CO)cc1 [FTY720, 2-amino-2-[2-(4-octylphenyl)ethyl]propane-1,3-diol] | no evidence of protection | 35.0 | reduction in permeability by 1S was comparable to that achieved by S1P or FTY720 | does not suppress circulating WBC levels | 84.0 (±9.1) % | 88.1 (±5.6) % | 86.2 (±10.7) % | significant ubiquitination | only slight ubiquitination | strongly activated | 17 | 1 out of the 6 | somewhat barrier-disruptive | TER response (tracing) (HPAEC [7]; 1 μM): delayed onset of barrier enhancement |
| CCCCCCCCc1ccc(CC[C@@](N)(CO)CCP(=O)(O)O)cc1 [1S, (S)-3-amino-3-(hydroxymethyl)-5-(4-octylphenyl)pentylphosphonic acid] | significant decreases | 87.6 | significantly reduced capillary leak | does not further alter peripheral blood leukocyte and lymphocyte levels | 92.8 (±2.6) % | 97.2 (±0.8) % | 51.9 (±21.0) % | does not induce ubiquitination | only slight ubiquitination | only slightly activated | 83 | 5 out of 6 | even greater maximal TER elevation | S1PR1 expression, agonist without MG132 (S1P receptor 1 (S1PR1) [2]; 1 μM, 4 h (FIG. 18)): 89.5%; S1PR1 expression, agonist after MG132 pretreatment (S1P receptor 1 (S1PR1) [2]; MG132 10 μM 2 h, then 1 μM agonist 4 h): 99.2%; BAL WBC accumulation ([3]; i.p. 1 h after LPS, 18 h): significantly reduced; LPS-induced albumin leakage into BAL ([3]; i.p. 1 h after LPS, 18 h): significantly reduced; LPS-induced albumin leakage into lung tissue ([3]; i.p. 1 h after LPS, 18 h): significantly reduced; lung tissue MPO activity ([3]; i.p. 1 h after LPS, 18 h): significantly reduced; hematologic toxicity ([3]; mouse, in vivo): without apparent hematologic toxicity; comparison with 1R, 2R, 2S in the LPS model ([3]; preliminary studies, data not shown): superior to the other barrier-promoting analogs; BAL protein after 14 days, compared to FTY720 ([6]; 0.1 mg/kg i.p. 3× a week): Decreased BAL protein; maximal percentage TER change compared with S1P and FTY720 (HPAEC [7]; 1 μM, within 60 min): greater maximal percentage TER change |
